According to patent publication US20260015363A1, “SUBSTITUTED PYRIMIDINE-FUSED RING INHIBITOR, METHOD FOR PREPARING SAME, AND USE THEREOF” (Suzhou Zelgen Biopharmaceuticals Co., Ltd., priority 2022, published 2026):
Structures can show the parent of a compound that is named as a salt.

Legend:
AsPC-1 (G12D) = assay: KRAS mutant cell proliferation inhibition assay (CellTiter-Glo 3D), AsPC-1; type: cell-based, human; details: Homo sapiens, ASPC1, 168 h, AsPC-1 (G12D) cells, 7 days
Procedure: (§1) Positive control: MRTX1133
(§2) • (a) The cells were thawed in T75 cell culture flasks: • (b) When 80%-90% cell confluence was achieved, the cells were passaged.
(§3) The diluted test compound was added to a 384-well cell culture plate using a nanoliter pipetting system, and replicate wells were set. An equal volume of medium was added to the positive control group; an equal volume of DMSO was added to the negative control group. The plate was centrifuged at 1000 rpm at room temperature for 1 min.
(§4) The cells were seeded into a) 384-well culture plate. An equal volume of cells was added to the negative control group, and only an equal volume of medium was added to the positive control group. The plate was centrifuged at 1000 rpm at room temperature for 1 min. The final DMSO concentration in the final compound was 0.5%. The plate was incubated in a thermostatic incubator at 37° C. with 5% CO2 for 7 days.
(§5) CellTiter-Glo® 3D was added to b) 384-well cell culture plate at 20 μL/well. The plate was shaken at 320 rpm in the dark for 20 min, and incubated at room temperature in the dark for 2 h. The luminescence values were read using an Envision multi-mode microplate reader.
(§6) The inhibition rates (IRs) of the test compounds were calculated according to the following formula: IR (%)=(1−(RLU compound−RLU blank control)/(RLU vehicle control−RLU blank control))×100%. The inhibition rates of the compounds at different concentrations were calculated in Excel, and then inhibition curves were plotted and relevant parameters including minimum inhibition rate, maximum inhibition rate and IC50 were calculated using GraphPad Prism software.

SW480 (G12V) = assay: KRAS mutant cell proliferation inhibition assay (CellTiter-Glo 3D), SW480; type: cell-based; details: Homo sapiens, 168 h, SW480 (G12V) cells, 7 days
Procedure: as §1, §2, §3, §4, §5, §6

IC50 (AsPC-1 (G12D))	IC50 (SW480 (G12V))	Compound
> 1000 nM	–	CN(C)C(=O)c1cc2n(n1)CCCN(c1nc(OC[C@]34CCCN3C[C@]3(CC3(F)F)C4)nc3c1CCN(c1cccc4ccc(F)c(Cl)c14)C3)C2 [Example B-16, 5-(7-(8-Chloro-7-fluoronaphthalen-1-yl)-2-(((trans)-2,2-2,2-fluorodihydro-1′H,3′H-spiro[cyclopropane-1,2′-pyrrolizin]-7a′ (5′H)-yl)methoxy)-5,6,7,8-tetrahydropyrido[3,4-d]pyrimidin-4-yl)-N,N-dimethyl-5,6,7,8-tetrahydro-4H-pyrazolo[1,5-a][1,4]diazepine-2-carboxamide]
572 nM	307 nM	CCc1c(F)ccc2cc(O)cc(-c3ncc4c(N5CCOCCC5C)nc(OC[C@@]56CCCN5C[C@@]5(CC5(F)F)C6)nc4c3F)c12 (stereo partly drawn) [Example A-37, 4-(2-(((1S,7a'S)-2,2-Difluorodihydro-1′H,3′H-spiro[cyclopropane-1,2′-pyrrolizin]-7a′ (5′H)-yl)methoxy)-8-fluoro-4-(5-methyl-1,4-oxazepan-4-yl)pyrido[4,3-d]pyrimidin-7-yl)-5-ethyl-6-fluoronaphthalen-2-ol]
–	66.7 nM	CCc1c(F)ccc2cc(O)cc(-c3ncc4c(N5CCOCC(F)C5)nc(OC[C@@]56CCCN5C[C@@]5(CC5(F)F)C6)nc4c3F)c12 (stereo partly drawn) [Example A-34, 4-(2-(((1S,7a'S)-2,2-Difluorodihydro-1′H,3′H-spiro[cyclopropane-1,2′-pyrrolizin]-7a′ (5′H)-yl)methoxy)-8-fluoro-4-(6-fluoro-1,4-oxazepan-4-yl)pyrido[4,3-d]pyrimidin-7-yl)-5-ethyl-6-fluoronaphthalen-2-ol]
> 1000 nM	–	CCc1c(F)ccc2cc(O)cc(-c3ncc4c(N(C)C5CC5)nc(OC[C@@]56CCCN5C[C@@]5(CC5(F)F)C6)nc4c3F)c12 [Example A-40, 4-(4-(Cyclopropyl(methyl)amino)-2-(((1S,7a'S)-2,2-difluorodihydro-1′H,3′ H-spiro[cyclopropane-1,2′-pyrrolizin]-7a′ (5′H)-yl)methoxy) 8-fluoropyrido[4,3-d]pyrimidin-7-yl)-5-ethyl-6-fluoronaphthalen-2-ol]
> 1000 nM	–	CCc1c(F)ccc2cc(O)cc(-c3ncc4c(N5CC6(CCO6)C5)nc(OC[C@@]56CCCN5C[C@@]5(CC5(F)F)C6)nc4c3F)c12 [Example A-23, 4-(2-(((1S,7a'S)-2,2-Difluorodihydro-1′H,3′H-spiro[cyclopropane-1,2′-pyrrolizin]-7a′ (5′H)-yl)methoxy)-8-fluoro-4-(1-oxa-6-azaspiro[3.4]heptan-6-yl)pyrido[4,3-d]pyrimidin-7-yl)-5-ethyl-6-fluoronaphthalen-2-ol]
986 nM	–	CC(C1CC1)N(C)c1nc(OC[C@@]23CCCN2C[C@@]2(CC2(F)F)C3)nc2c(F)c(-c3cc(N)cc(Cl)c3C(F)(F)F)ncc12 (stereo partly shown) [Example A-43, 7-(5-Amino-3-chloro-2-(trifluoromethyl)phenyl)-N-(1-cyclopropylethyl)-2-(((1.S,7a'S)-2,2-difluorodihydro-1′H,3′H-spiro[cyclopropane-1,2′-pyrrolizin]-7a′ (5′H)-yl)methoxy)-8-fluoro-N-methylpyrido[4,3-d]pyrimidin-4-amine trifluoroacetate]
> 1000 nM	–	CCc1c(F)ccc2cc(O)cc(-c3ncc4c(N(C)C(C)C5CC5)nc(OC[C@@]56CCCN5C[C@@]5(CC5(F)F)C6)nc4c3F)c12 (stereo partly shown) [Example A-42, 4-(4-((1-Cyclopropylethyl)(methyl)amino)-2-(((15,7a'S)-2,2-difluorodihydro-1′H,3′H-spiro[cyclopropane-1,2′-pyrrolizin]-7a′ (5′H)-yl)methoxy)-8-fluoropyrido[4,3-d]pyrimidin-7-yl)-5-ethyl-6-fluoronaphthalen-2-ol trifluoroacetate]
–	168 nM	CCc1c(F)ccc2cc(O)cc(-c3ncc4c(N5CC6COC(C6)C5)nc(OC[C@@]56CCCN5C[C@@]5(CC5(F)F)C6)nc4c3F)c12 (stereo partly shown) [Example A-33]
> 1000 nM	–	CN(c1nc(OC[C@@]23CCCN2C[C@@]2(CC2(F)F)C3)nc2c(F)c(-c3cc(N)cc(Cl)c3C(F)(F)F)ncc12)C1CC1 [Example A-41, 7-(5-Amino-3-chloro-2-(trifluoromethyl)phenyl)-N-cyclopropyl-2-(((1S,7a'S)-2,2-difluorodihydro-1′H,3′H-spiro[cyclopropane-1,2′-pyrrolizin]-7a′ (5′H)-yl)methoxy)-8-fluoro-N-methylpyrido[4,3-d]pyrimidin-4-amine]
–	159 nM	CCc1c(F)ccc2cc(O)cc(-c3ncc4c(N5CCOCC(F)(F)C5)nc(OC[C@@]56CCCN5C[C@@]5(CC5(F)F)C6)nc4c3F)c12 [Example A-35, 4-(4-(6,6-Difluoro-1,4-oxazepan-4-yl)-2-(((1.S,7a'S)-2,2-difluorodihydro-1′H,3′H-spiro[cyclopropane-1,2′-pyrrolizin]-7a′ (5′H)-yl)methoxy)-8-fluoropyrido[4,3-d]pyrimidin-7-yl)-5-ethyl-6-fluoronaphthalen-2-ol]
–	336 nM	Nc1cc(Cl)c(C(F)(F)F)c(-c2ncc3c(N4CC5COC(C5)C4)nc(OC[C@@]45CCCN4C[C@@]4(CC4(F)F)C5)nc3c2F)c1 (stereo partly drawn) [Example A-32, 3-(4-(6-Oxa-3-azabicyclo[4.2.1]nonan-3-yl)-2-(((1S,7a'S)-2,2-difluorodihydro-1′H,3′H-spiro[cyclopropane-1,2′-pyrrolizin]-7a′ (5′H)-yl)methoxy)-8-fluoropyrido[4,3-d]pyrimidin-7-yl)-5-chloro-4-(trifluoromethyl)aniline]
> 1000 nM	–	CCc1c(F)ccc2cc(O)cc(-c3ncc4c(N5CCC6(CCO6)C5)nc(OC[C@@]56CCCN5C[C@@]5(CC5(F)F)C6)nc4c3F)c12 (stereo partly shown) [Example A-22, 4-(2-(((1.S,7a'S)-2,2-Difluorodihydro-1′H,3′H-spiro[cyclopropane-1,2′-pyrrolizin]-7a′ (5′H)-yl)methoxy)-8-fluoro-4-(1-oxa-6-azaspiro[3.4]octan-6-yl)pyrido[4,3-d]pyrimidin-7-yl)-5-ethyl-6-fluoronaphthalen-2-ol]
–	102 nM	CCc1c(F)ccc2cc(O)cc(-c3ncc4c(N5CCCCC(F)C5)nc(OC[C@@]56CCCN5C[C@@]5(CC5(F)F)C6)nc4c3F)c12 (stereo partly drawn) [Example A-36, 4-(2-(((1S,7a'S)-2,2-Difluorodihydro-1′H,3′H-spiro[cyclopropane-1,2′-pyrrolizin]-7a′ (5′H)-yl)methoxy)-8-fluoro-4-(3-fluoroazepan-1-yl)pyrido[4,3-d]pyrimidin-7-yl)-5-ethyl-6-fluoronaphthalen-2-ol]
> 1000 nM	–	CCc1c(F)ccc2cc(O)cc(-c3ncc4c(N5CCC6(COC6)C5)nc(OC[C@@]56CCCN5C[C@@]5(CC5(F)F)C6)nc4c3F)c12 [Example A-21, 4-(2-(((1S,7a'S)-2,2-Difluorodihydro-1′H,3′H-spiro[cyclopropane-1,2′-pyrrolizin]-7a′ (5′H)-yl)methoxy)-8-fluoro-4-(2-oxa-6-azaspiro[3.4]octan-6-yl)pyrido[4,3-d]pyrimidin-7-yl)-5-ethyl-6-fluoronaphthalen-2-ol]
> 1000 nM	–	CN(C)C(=O)c1cc2n(n1)CCCN(c1nc(OC[C@@]34CCCN3C[C@@]3(CC3(F)F)C4)nc3c1CCN(c1ccc(F)c4sc(N)c(C#N)c14)C3)C2 [Example B-15, 5-(7-(2-Amino-3-cyano-7-fluorobenzo[b]thiophen-4-yl)-2-(((trans)-2,2-fluorodihydro-1′H,3′H-spiro[cyclopropane-1,2′-pyrrolizin]-7a′ (5′H)-yl)methoxy)-5,6,7,8-tetrahydropyrido[3,4-d]pyrimidin-4-yl)-N,N-dimethyl-5,6,7,8-tetrahydro-4H-pyrazolo[1,5-a][1,4]diazepine-2-carboxamide]
